In patent publication US9695155B2, “Herbicidal substituted pyrimidinyloxy benzene compounds” (E. I. DU PONT DE NEMOURS AND COMPANY, priority 2013, dated 2017):

Assays:
blackgrass [1] = assay: Test A postemergence; format: in vivo, Alopecurus myosuroides; settings: 0 to 100 scale, 0 no effect, 100 complete control
Procedure, shortened: (§1)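 Scoring: eye-based comparison with untreated controls, 0 for no effect through 100 for complete control, at about day 10. Treatments: directed soil spray preemergence; foliar spray postemergence on 2–10 cm plants at the one- to two-leaf stage. Medium: loam soil with sand.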

ragweed [2] = assay: Test A postemergence; format: in vivo, Ambrosia elatior; settings: 0 to 100 scale, 0 no effect, 100 complete control
Procedure, shortened: as §1

velvetleaf = assay: Test C preemergence; format: in vivo, Abutilon theophrasti; settings: Abutilon theophrasti, pre-emergence
Procedure, shortened: (§2)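 Plants were kept under greenhouse conditions for 13–15 days following spray. Pre-emergent application went to soil (loam–sand), post-emergent to foliage at 1–4 leaves. Evaluation: visual, percent control against untreated checks.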

kochia = assay: Test A postemergence; format: in vivo, Kochia scoparia; settings: 0 to 100 scale, 0 no effect, 100 complete control
Procedure, shortened: as §1

blackgrass [3] = assay: Test C preemergence; format: in vivo, Alopecurus myosuroides; settings: Alopecurus myosuroides, pre-emergence
Procedure, shortened: as §2

waterhemp = assay: Test C preemergence; format: in vivo, Amaranthus rudis; settings: Amaranthus tuberculatus, pre-emergence
Procedure, shortened: as §2

barnyardgrass = assay: Test C preemergence; format: in vivo, Echinochloa crus-galli; settings: Echinochloa crus-galli, pre-emergence
Procedure, shortened: as §2

large (Lg) crabgrass = assay: Test C preemergence; format: in vivo, Digitaria sanguinalis; settings: Digitaria sanguinalis, pre-emergence
Procedure, shortened: as §2

pigweed = assay: Test C preemergence; format: in vivo, Amaranthus retroflexus; settings: Amaranthus retroflexus, pre-emergence
Procedure, shortened: as §2

ragweed [4] = assay: Test C preemergence; format: in vivo, Ambrosia elatior; settings: Ambrosia artemisiifolia, pre-emergence
Procedure, shortened: as §2

wheat, winter = assay: Test C preemergence; format: in vivo, Triticum aestivum; settings: Triticum aestivum, pre-emergence
Procedure, shortened: as §2

oilseed rape = assay: Test C preemergence; format: in vivo, Brassica napus; settings: Brassica napus, pre-emergence
Procedure, shortened: as §2

galium = assay: Test A postemergence; format: in vivo, Galium aparine; settings: 0 to 100 scale, 0 no effect, 100 complete control
Procedure, shortened: as §1

soybean = assay: Test C preemergence; format: in vivo, Glycine max; settings: Glycine max, pre-emergence
Procedure, shortened: as §2

giant foxtail = assay: Test C preemergence; format: in vivo, Setaria faberii; settings: Setaria faberi, pre-emergence
Procedure, shortened: as §2

lambsquarters = assay: Test C preemergence; format: in vivo, Chenopodium album; settings: Chenopodium album, pre-emergence
Procedure, shortened: as §2

ragweed [5] = assay: Test A preemergence; format: in vivo, Ambrosia elatior
Procedure, shortened: as §1

yellow nutsedge = assay: Test C preemergence; format: in vivo, Cyperus esculentus; settings: Cyperus, pre-emergence
Procedure, shortened: as §2

N#Cc1cccc(Oc2ncc(Cl)cn2)c1-n1cc(C(F)F)cn1 [Compound 253, 3-(5-chloropyrimidin-2-yl)oxy-2-[4-(difluoromethyl)-1H-pyrazol-1-yl]benzonitrile]
Plant response rating, Blackgrass (blackgrass [1]; 31 g ai/ha): 20 | Plant response rating, Blackgrass (blackgrass [1]; 125 g ai/ha): 80 | Plant response rating, Ragweed (ragweed [2]; 31 g ai/ha): 20 | Plant response rating, Ragweed (ragweed [2]; 125 g ai/ha): 80 | pest or weed control at 16 g/ha (velvetleaf; 16 g ai/ha, preemergence, scale 0 to 100 (0 no effect, 100 complete control), read-out: Velvetleaf plant response rating): 55% | pest or weed control at 125 g/ha (velvetleaf; 125 g ai/ha, preemergence, scale 0 (no effect) to 100 (complete control), read-out: Velvetleaf plant response rating): 100% | pest or weed control at 62 g/ha (velvetleaf; Preemergence, 62 g ai/ha, scale 0 to 100, 0 no effect, 100 complete control, read-out: Plant response rating, Velvetleaf): 100% | Plant response rating, Kochia (kochia; 31 g ai/ha): 100 | Plant response rating, Kochia (kochia; 125 g ai/ha): 100 | pest or weed control at 16 g/ha (blackgrass [3]; 16 g ai/ha, preemergence, scale 0 to 100 (0 no effect, 100 complete control), read-out: Blackgrass plant response rating): 0% | pest or weed control at 125 g/ha (blackgrass [3]; 125 g ai/ha, preemergence, scale 0 (no effect) to 100 (complete control), read-out: Blackgrass plant response rating): 90% | pest or weed control at 62 g/ha (blackgrass [3]; Preemergence, 62 g ai/ha, scale 0 to 100, 0 no effect, 100 complete control, read-out: Plant response rating, Blackgrass): 90% | pest or weed control at 16 g/ha (waterhemp; 16 g ai/ha, preemergence, scale 0 to 100 (0 no effect, 100 complete control), read-out: Waterhemp plant response rating): 100% | pest or weed control at 125 g/ha (waterhemp; 125 g ai/ha, preemergence, scale 0 (no effect) to 100 (complete control), read-out: Waterhemp plant response rating): 100% | pest or weed control at 62 g/ha (waterhemp; Preemergence, 62 g ai/ha, scale 0 to 100, 0 no effect, 100 complete control, read-out: Plant response rating, Waterhemp): 100% | pest or weed control at 16 g/ha (barnyardgrass; 16 g ai/ha, preemergence, scale 0 to 100 (0 no effect, 100 complete control), read-out: Barnyardgrass plant response rating): 30% | pest or weed control at 125 g/ha (barnyardgrass; 125 g ai/ha, preemergence, scale 0 (no effect) to 100 (complete control), read-out: Barnyardgrass plant response rating): 100% | pest or weed control at 62 g/ha (barnyardgrass; Preemergence, 62 g ai/ha, scale 0 to 100, 0 no effect, 100 complete control, read-out: Plant response rating, Barnyardgrass): 100% | pest or weed control at 16 g/ha (large (Lg) crabgrass; 16 g ai/ha, preemergence, scale 0 to 100 (0 no effect, 100 complete control), read-out: Crabgrass, Large plant response rating): 85% | pest or weed control at 125 g/ha (large (Lg) crabgrass; 125 g ai/ha, preemergence, scale 0 (no effect) to 100 (complete control), read-out: Crabgrass, Large plant response rating): 100% | pest or weed control at 62 g/ha (large (Lg) crabgrass; Preemergence, 62 g ai/ha, scale 0 to 100, 0 no effect, 100 complete control, read-out: Plant response rating, Crabgrass, Large): 100% | pest or weed control at 16 g/ha (pigweed; 16 g ai/ha, preemergence, scale 0 to 100 (0 no effect, 100 complete control), read-out: Pigweed plant response rating): 100% | pest or weed control at 125 g/ha (pigweed; 125 g ai/ha, preemergence, scale 0 (no effect) to 100 (complete control), read-out: Pigweed plant response rating): 100% | pest or weed control at 62 g/ha (pigweed; Preemergence, 62 g ai/ha, scale 0 to 100, 0 no effect, 100 complete control, read-out: Plant response rating, Pigweed): 100% | pest or weed control at 16 g/ha (ragweed [4]; 16 g ai/ha, preemergence, scale 0 to 100 (0 no effect, 100 complete control), read-out: Ragweed plant response rating): 35% | pest or weed control at 125 g/ha (ragweed [4]; 125 g ai/ha, preemergence, scale 0 (no effect) to 100 (complete control), read-out: Ragweed plant response rating): 100% | pest or weed control at 62 g/ha (ragweed [4]; Preemergence, 62 g ai/ha, scale 0 to 100, 0 no effect, 100 complete control, read-out: Plant response rating, Ragweed): 85% | plant injury at 16 g/ha (wheat, winter; 16 g ai/ha, preemergence, scale 0 to 100 (0 no effect, 100 complete control), read-out: Wheat plant response rating): 0% | plant injury at 125 g/ha (wheat, winter; 125 g ai/ha, preemergence, scale 0 (no effect) to 100 (complete control), read-out: Wheat plant response rating): 60% | plant injury at 62 g/ha (wheat, winter; Preemergence, 62 g ai/ha, scale 0 to 100, 0 no effect, 100 complete control, read-out: Plant response rating, Wheat): 0% | plant injury at 16 g/ha (oilseed rape; 16 g ai/ha, preemergence, scale 0 to 100 (0 no effect, 100 complete control), read-out: Oilseed Rape plant response rating): 75% | plant injury at 125 g/ha (oilseed rape; 125 g ai/ha, preemergence, scale 0 (no effect) to 100 (complete control), read-out: Oilseed Rape plant response rating): 100% | plant injury at 62 g/ha (oilseed rape; Preemergence, 62 g ai/ha, scale 0 to 100, 0 no effect, 100 complete control, read-out: Plant response rating, Oilseed Rape): 100% | Plant response rating, Galium (galium; 31 g ai/ha): 60 | Plant response rating, Galium (galium; 125 g ai/ha): 100 | plant injury at 16 g/ha (soybean; 16 g ai/ha, preemergence, scale 0 to 100 (0 no effect, 100 complete control), read-out: Soybean plant response rating): 40% | plant injury at 125 g/ha (soybean; 125 g ai/ha, preemergence, scale 0 (no effect) to 100 (complete control), read-out: Soybean plant response rating): 98% | plant injury at 62 g/ha (soybean; Preemergence, 62 g ai/ha, scale 0 to 100, 0 no effect, 100 complete control, read-out: Plant response rating, Soybean): 95% | pest or weed control at 16 g/ha (giant foxtail; 16 g ai/ha, preemergence, scale 0 to 100 (0 no effect, 100 complete control), read-out: Foxtail, Giant plant response rating): 35% | pest or weed control at 125 g/ha (giant foxtail; 125 g ai/ha, preemergence, scale 0 (no effect) to 100 (complete control), read-out: Foxtail, Giant plant response rating): 100% | pest or weed control at 62 g/ha (giant foxtail; Preemergence, 62 g ai/ha, scale 0 to 100, 0 no effect, 100 complete control, read-out: Plant response rating, Foxtail, Giant): 98% | pest or weed control at 16 g/ha (lambsquarters; 16 g ai/ha, preemergence, scale 0 to 100 (0 no effect, 100 complete control), read-out: Lambsquarters plant response rating): 100% | pest or weed control at 125 g/ha (lambsquarters; 125 g ai/ha, preemergence, scale 0 (no effect) to 100 (complete control), read-out: Lambsquarters plant response rating): 100% | pest or weed control at 62 g/ha (lambsquarters; Preemergence, 62 g ai/ha, scale 0 to 100, 0 no effect, 100 complete control, read-out: Plant response rating, Lambsquarters): 100% | Plant response rating, Ragweed (ragweed [5]; 31 g ai/ha, 0 to 100 scale where 0 is no effect and 100 is complete control, visual, approximately 10 days): 20 | Ragweed plant response rating (0 to 100 scale) (ragweed [5]; 125 g ai/ha): 80 | pest or weed control at 16 g/ha (yellow nutsedge; 16 g ai/ha, preemergence, scale 0 to 100 (0 no effect, 100 complete control), read-out: Nutsedge, Yellow plant response rating): 0% | pest or weed control at 125 g/ha (yellow nutsedge; 125 g ai/ha, preemergence, scale 0 (no effect) to 100 (complete control), read-out: Nutsedge, Yellow plant response rating): 65% | pest or weed control at 62 g/ha (yellow nutsedge; Preemergence, 62 g ai/ha, scale 0 to 100, 0 no effect, 100 complete control, read-out: Plant response rating, Nutsedge, Yellow): 20%
